Results from paper PMC4036227 (Journal of medicinal chemistry, 2013).
Where two headings read alike, the source gives them in different places.

Key:
A/WSN/33-N31S (WT) virus = assay type: cell-based
[1] = biological target: T1, S31N mutant M2 proton channel (full length AM2 protein) (Influenza A virus, UniProt P0DOF5, S31N); assay type: biochemical; conditions: 100 µM
[2] = biological target: T1, S31N mutant M2 proton channel (full length AM2 protein); conditions: cited from earlier work

Compound: Oc1ccc(CNC23CC4CC(CC(C4)C2)C3)c(O)c1 [Compound 44, 4-(adamantan-1-ylaminomethyl)-benzene-1,3-diol]
- inhibition of plaque formation, WT virus (A/WSN/33-N31S (WT) virus): complete inhibition

Compound: CC(N)C12CC3CC(CC(C3)C1)C2 (stereo not shown) [Compound 2, rimantadine]
- S31N % inhibition (TEVC) [1]: 13%

Compound: c1ccc(CNC23CC4CC(CC(C4)C2)C3)nc1 [Compound 33]
- S31N % inhibition (TEVC) [1]: 0%

Compound: pinanamine
- S31N % inhibition (TEVC) [2]: 0%

Compound: COC(=O)[C@H](Cc1cnc[nH]1)NCC12CC3CC(CC(C3)C1)C2 [Compound 3]
- S31N % inhibition (TEVC) [1]: 0%

Compound: C[C@@H]1[C@@H](/N=C/c2ccc(O)cc2)C[C@H]2C[C@@H]1C2(C)C [Compound 4]
- S31N % inhibition (TEVC) [1]: 0%

Compound: NC12CC3CC(CC(C3)C1)C2 [Compound 1, amantadine]
- S31N % inhibition (TEVC) [1]: 35 ± 2/ %
